Test results published in patent US4486594A, “Thiazolidine derivatives and production thereof” (Takeda Chemical Industries, Ltd., priority 1982, dated 1984).

Assays:
[1] = system: Sorbitol accumulation in sciatic nerve; experiment: Inhibition of sorbitol accumulation in the sciatic nerve of streptozotocin-diabetic rats; assay type: in vivo, Sprague-Dawley rats; settings: 25 mg/kg orally, twice a day for two days; relative to the control
Method: (§1) Sprague-Dawley rats (male, 5-7 week old, five rats/group) were fasted for 18 hours. The rats were made diabetic by an intravenous injection of 70 mg/kg of streptozotocin (Produced by Cal Biochem) at the site of the tail under ether anesthesia. After the administration of streptozotocin, these rats were administered orally with 25 mg/kg of the test compounds (5% suspension of gum-arabica) for two days twice a day (at 9.00 a.m. and at 4.00 p.m.). During this period, these rats were allowed free access to CE-2 feedstuff (Produced by Clea Japan) and water while determining blood-sugar level of each animal. On the morning of the third day, these rats were decapitated and bled, then the lens and sciatic nerve were quickly excised. The respective contents of sorbitol in the lens and sciatic nerve were determined by the enzymatic assay method described by R. S. Clements et al., in Science, 166, p. 1007 (1969) applied to the extracts of these organs obtained by the method described by M. J. Peterson et al., in Metabolism, 28, 456 (1979).
(§2) The results are shown in the Table below as % inhibition relative to the control. Incidentally, no significant difference in blood-sugar level was observed between the group of test animals to which the test compounds were administered and the control group of the test animals to which no test compounds were administered.

[2] = target: T1, partially purified aldose reductase preparation from human placenta (Homo sapiens, UniProt P15121); experiment: Aldose reductase inhibitory action; assay type: biochemical; settings: 10^-6 M; human placenta enzyme
T1 construct: partially purified aldose reductase preparation from human placenta; from tissue; host or cells: human placenta
Method: Aldose reductase inhibitory action was assayed in accordance with the method disclosed by S. Haymen et al. in Journal of Biological Chemistry, Vol. 240, p. 877 (1965) and that disclosed by Jin H. Kinoshita et al. in Metabolism, Vol. 28, Nr. 4, Suppl. 1, 462 (1979). The enzyme used in the assay was a partially purified aldose reductase preparation from human placenta. The results for the respective compounds were expressed as % inhibition at the concentration of 10^-6 mole and are shown in Table 1.

[3] = system: mice; experiment: Oral acute toxicity in mice; assay type: in vivo
[4] = system: Sorbitol accumulation in lens; experiment: Inhibition of sorbitol accumulation in the lens of streptozotocin-diabetic rats; assay type: in vivo, Sprague-Dawley rats; settings: 25 mg/kg orally, twice a day for two days; relative to the control
Method: as §1, §2

Compound | Inhibition of Sorbitol Accumulation (%), Sciatic Nerve [1] [%] | inhibition at 1 µM [2] [%] | oral LD50 [3] | Inhibition of Sorbitol Accumulation (%), Lens [4] [%]
O=C1NC(=O)C(c2ccc3c(c2)CCCC3)S1 (centres unmarked) [Example 2, 5-(5,6,7,8-tetrahydro-2-naphthyl)thiazolidine-2,4-dione] | 79 | 36 | no less than 100 mg | 73
Cc1ccc(C2SC(=O)NC2=O)cc1C (centres unmarked) [reference compound] | 5 |  |  | 18
O=C1NC(=O)C(c2ccc3c(c2)CCC3)S1 (centres unmarked) [Example 4, 5-(5-indanyl)thiazolidine-2,4-dione] | 66 | 30 |  | 62
COc1ccc(C2SC(=O)NC2=O)cc1OC (centres unmarked) [reference compound] | -2 |  |  | 62
O=C1NC(=O)C(c2ccc3c(c2)CCCCC3)S1 (centres unmarked) [Example 1, 5-(6,7,8,9-tetrahydro-5H-benzocycloheptadien-2-yl)thiazolidine-2,4-dione] | 83 | 34 |  | 65
